One series deals with P450 3A5 (Homo sapiens, UniProt P20815). Description: in vitro.
The next series deals with P450 3A4 (Homo sapiens, UniProt P08684). Description: in vitro.
P450 3A4, sequence (P08684 2-503): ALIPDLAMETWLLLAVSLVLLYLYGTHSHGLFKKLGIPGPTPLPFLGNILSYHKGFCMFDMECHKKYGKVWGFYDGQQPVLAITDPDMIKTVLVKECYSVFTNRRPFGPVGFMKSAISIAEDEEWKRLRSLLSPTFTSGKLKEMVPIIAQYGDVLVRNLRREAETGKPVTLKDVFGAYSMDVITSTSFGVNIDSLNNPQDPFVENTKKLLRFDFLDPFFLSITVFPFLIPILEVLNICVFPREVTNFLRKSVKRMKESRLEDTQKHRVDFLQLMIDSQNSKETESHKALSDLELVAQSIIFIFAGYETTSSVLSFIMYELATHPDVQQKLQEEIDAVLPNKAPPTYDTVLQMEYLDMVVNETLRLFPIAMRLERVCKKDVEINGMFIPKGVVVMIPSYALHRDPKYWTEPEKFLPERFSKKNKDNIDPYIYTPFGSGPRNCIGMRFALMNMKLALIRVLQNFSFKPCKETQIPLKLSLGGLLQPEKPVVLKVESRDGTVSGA
P450 3A4, sequence (P16435 2-677 partner): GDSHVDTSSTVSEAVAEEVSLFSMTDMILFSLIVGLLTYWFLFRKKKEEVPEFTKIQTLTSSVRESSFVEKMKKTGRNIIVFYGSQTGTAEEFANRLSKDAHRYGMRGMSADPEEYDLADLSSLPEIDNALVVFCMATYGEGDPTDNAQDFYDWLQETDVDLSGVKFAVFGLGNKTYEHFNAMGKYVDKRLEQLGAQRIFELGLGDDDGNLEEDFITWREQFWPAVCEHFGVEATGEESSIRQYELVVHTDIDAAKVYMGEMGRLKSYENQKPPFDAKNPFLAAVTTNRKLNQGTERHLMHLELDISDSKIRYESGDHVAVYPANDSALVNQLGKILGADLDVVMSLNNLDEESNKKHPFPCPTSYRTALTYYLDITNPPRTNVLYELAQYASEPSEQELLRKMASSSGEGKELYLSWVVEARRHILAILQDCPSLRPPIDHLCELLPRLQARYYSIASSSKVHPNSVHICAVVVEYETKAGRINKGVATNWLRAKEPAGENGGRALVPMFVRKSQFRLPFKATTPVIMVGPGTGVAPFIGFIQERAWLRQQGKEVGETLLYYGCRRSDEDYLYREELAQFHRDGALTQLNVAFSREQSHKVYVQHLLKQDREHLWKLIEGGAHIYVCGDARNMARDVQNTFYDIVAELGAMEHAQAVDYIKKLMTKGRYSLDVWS
P450 3A4, sequence (P00167 2-134 partner): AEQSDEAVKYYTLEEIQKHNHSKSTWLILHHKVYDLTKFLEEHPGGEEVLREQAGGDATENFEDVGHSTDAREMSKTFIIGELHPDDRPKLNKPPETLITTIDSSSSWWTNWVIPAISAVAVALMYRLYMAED

P450 3A5, sequence (P20815 whole entry): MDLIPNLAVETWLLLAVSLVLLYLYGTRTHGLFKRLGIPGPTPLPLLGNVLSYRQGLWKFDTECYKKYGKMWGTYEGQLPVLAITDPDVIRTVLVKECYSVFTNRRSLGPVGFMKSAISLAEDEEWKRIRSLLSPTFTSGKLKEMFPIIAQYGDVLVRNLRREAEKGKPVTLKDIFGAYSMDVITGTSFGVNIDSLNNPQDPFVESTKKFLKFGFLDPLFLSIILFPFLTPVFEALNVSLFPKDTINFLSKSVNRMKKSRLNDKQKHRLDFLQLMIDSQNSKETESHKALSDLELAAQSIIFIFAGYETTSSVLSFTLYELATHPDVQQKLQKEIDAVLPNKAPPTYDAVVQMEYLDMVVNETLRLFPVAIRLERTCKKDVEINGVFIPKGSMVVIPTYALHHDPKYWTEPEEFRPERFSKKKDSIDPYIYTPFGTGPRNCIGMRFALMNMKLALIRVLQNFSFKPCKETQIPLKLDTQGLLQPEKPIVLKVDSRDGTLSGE
P450 3A5, sequence (P16435 2-677 partner): as the sequence (P16435 2-677 partner) above
P450 3A5, sequence (P00167 2-134 partner): as the sequence (P00167 2-134 partner) above

On to `CCC(=O)O[C@]1(C(=O)SCF)[C@H](C)C[C@H]2[C@@H]3C[C@H](F)C4=CC(=O)C=C[C@]4(C)[C@@]3(F)[C@@H](O)C[C@@]21C` [FLT, fluticasone propionate], for which the KI (inactivation) is 16 µM at P450 3A5 and 3.5 µM at P450 3A4.

Values taken from paper PMC2924751 (Chemical research in toxicology, 2010).
